Measured values from PMC9382192, “Combined treatment with epigenetic agents enhances anti-tumor activity of MAGE-D4 peptide-specific T cells by upregulating the MAGE-D4 expression in glioma” (Frontiers in Oncology, 2022).

Tests used:
Type in all cases: cell-based, human
[1] = test system: U251; experiment: Granzyme A and perforin ELISA, T cells with U251; settings: T cells incubated with DAC + TSA-treated U251, E:T 50:1, 4 h
Procedure: The human glioma cell lines (U87-MG and U251) were obtained from the Cell Bank of Type Culture Collection of the Chinese Academy of Science (Shanghai, China). […] A3656), valproic acid (VPA, CAS No. 99-66-1), and trichostatin A (TSA, CAS No. 58880-19-6) were purchased from Sigma-Aldrich Corporation (St. Louis, MO, USA). DAC and TSA were dissolved in DMSO to a concentration of 10 mM. Aliquots were stored at −80°C and diluted with media before being used. […] Four hours later, suspended cells were collected for CD107a flow cytometry, meanwhile, the supernatant was collected and analyzed with granzyme A and perforin ELISA kit (Cloud-Clone Corporation, Wuhan, China) at 450 nm, and the LDH kit (Promega, USA) at 490 nm. The percentage of specific lysis was calculated using the following formula: [(experimental release − spontaneous release)/(maximum release − spontaneous release)] × 100. […] Then, the cytotoxicity assay was measured and calculated as mentioned above.

[2] = test system: IFN-γ; experiment: IFN-γ ELISA of DC/T-cell co-culture supernatant; settings: 72 h co-culture supernatant, compared to T cells alone
Procedure: Production of cytokines in the supernatants was determined using commercially available ELISA kits (Cloud-Clone Corporation, Wuhan, China) according to the protocol of the manufacturer. Approximately 50 μl of supernatant and different concentration standards were added and mixed with 100 μl of horseradish peroxidase (HRP) labeled detection antibody against a 96-well plate, respectively, except for the blank control. After incubation at 37°C for 60 min, we washed the plate five times. Add substrate A and substrate B 50 μl respectively, incubate for 15min in a 37°C incubator in dark. Then, 50 μl of stop solution was added and a 450 nm absorbance value (OD value) was measured within 15 min. The regression equation of the standard curve is calculated according to the concentration of the standard substance and the OD value, and the corresponding sample concentration is calculated on the basis of the regression equation.

[3] = test system: MAGE-D4; experiment: MAGE-D4 expression (qRT-PCR, Western blot) in U87; settings: U87, compared to the control (0.09% DMSO); 1 μM TSA 24 h
Procedure: The human glioma cell lines (U87-MG and U251) were obtained from the Cell Bank of Type Culture Collection of the Chinese Academy of Science (Shanghai, China). […] A3656), valproic acid (VPA, CAS No. 99-66-1), and trichostatin A (TSA, CAS No. 58880-19-6) were purchased from Sigma-Aldrich Corporation (St. Louis, MO, USA). DAC and TSA were dissolved in DMSO to a concentration of 10 mM. Aliquots were stored at -80°C and diluted with media before being used. Drug treatments were divided into seven groups: (1) DAC group: cells were cultured in medium on the presence of 1 μM DAC for 120 h; (2) VPA group: cells were grown in medium containing 1 mM VPA for 120 h; (3) TSA group: cells were cultured in medium supplemented with 1 μM TSA for 24 h; (4) D + V group: cells were cultured with 1 μM DAC and 1 mM VPA for 120 h; (5) D + T group: cells were cultured with 1 μM DAC for 120 h, followed by 1 μM TSA for 24 h; (6) Control group: cells were cultured with 0.09% DMSO, which is the highest concentration of DMSO used in this study in consideration of the potential toxicity of DMSO to living cells. […] Relative intensities of the bands were normalized with GAPDH and analyzed by ImageJ (NIH, Maryland, USA).

## CLPPPNVIL [Peptide P8]
[1]
  granzyme A and perforin secreted by T cells: the most granzyme A and perforin
[2]
  IFN-γ secretion by T cells (ELISA): high levels of IFN-γ

## CC(/C=C/C(=O)NO)=C\[C@@H](C)C(=O)c1ccc(N(C)C)cc1 [TSA, trichostatin A]
[3]
  MAGE-D4 mRNA and protein expression: higher
